Experimental data published in paper PMC13184988, “Enzymatic Bromination of Native Peptides for Late-Stage Structural Diversification via Suzuki–Miyaura Coupling” (ACS Chemical Biology, 2026).
Where “and” joins values, the source holds several entries; their conditions need not be identical. Identical values can stand only once. *1 amine or outer side, *2 acyl side, *3 side chain or, on linkers, in order; H or OH if unused. Where a SMILES comes first, the peptide text is derived from it. [ ]: non-standard residue; d: D form. X1 = O=C([C@H](Cc1c[nH]c2c(-c3cccc(C(F)(F)F)c3)cccc12)N[*:1])[*:2]; Trp(7-Br) = N[C@@H](Cc1c[nH]c2c(Br)cccc12)C(=O)O

Columns and labels:
[1] = test system: E. coli XL10; experiment: Bacterial minimal inhibitory concentration, 18 h growth inhibition assay; format: cell-based
[2] = test system: E. coli XL10; experiment: Minimal bactericidal concentration (Petri dish and spot assay); format: cell-based
Method: 0.5%. After incubation, the cells were washed 2 × 0.5 mg/mL heparin sulfate in PBS and then washed with 2 × FluoroBrite DMEM. FluoroBrite DMEM (200 µL) was added to each well for imaging. 1 drop of NucRed nuclear counterstain was added to visualize the cell nuclei. The cells were imaged using a Nikon microscope equipped with an Orca-Fire camera. Fiji was used for […]
. Fluorescence images were background corrected and individual nuclei were segmented based on a threshold intensity in the NucRed […]
Mueller-Hinton II cation-adjusted broth (10 mL) was inoculated with E. coli XL10 and incubated overnight with shaking at 37°C. The next day, the overnight culture was diluted to an OD600 of 0.5 […]
OD600 0.5 culture was further diluted 20-fold into fresh Mueller-Hinton II cation-adjusted broth […]
From each triplicate experiment, 100 µL of the 18-hour minimal inhibitory growth culture (see above) was plated on a petri dish containing Mueller-Hinton II cation-adjusted agar. […] The next morning, the bacterial growth on each triplicate plate was assessed. […]
Using a multichannel pipette, 3 μL from each triplicate of the 18-hour minimal inhibitory growth culture (see above) was spotted on a square petri dish containing Mueller-Hinton II cation-adjusted agar. […] The next morning, the bacterial growth on each triplicate plate was assessed. […]

[3] = test system: 4V; format: biochemical

| Compound | fold decrease in MIC relative to the parent peptide (RW)3 [1] | fold decrease in MBC relative to the parent peptide (RW)3 [2] | Average Percent Conversion [3] | Percent Br2 Conversion (EIC) [3] | Percent Br Conversion (EIC) [3] | Total Percent Conversion [3] | 4V-catalyzed conversion to the monobrominated product ([3]; unmodified bioactive peptides, 1 mM peptide, 10 mM NaBr, 25 μM 4V, 25 mM HEPES pH 7.4, 24 h ambient, n = 3 independent experiments) |
| --- | --- | --- | --- | --- | --- | --- | --- |
| N=C(N)NCCC[C@H](NC(=O)[C@H](Cc1c[nH]c2ccccc12)NC(=O)[C@H](CCCNC(=N)N)NC(=O)[C@H](Cc1c[nH]c2ccccc12)NC(=O)[C@@H](N)CCCNC(=N)N)C(=O)N[C@@H](Cc1c[nH]c2c(Br)cccc12)C(N)=O [Br-(RW)3] (H-RWRWR[Trp(7-Br)]-NH2; N-terminus assumed) | approximately 4 fold | approximately 4 fold |  |  |  |  |  |
| N=C(N)NCCC[C@H](NC(=O)[C@H](Cc1c[nH]c2ccccc12)NC(=O)[C@H](CCCNC(=N)N)NC(=O)[C@H](Cc1c[nH]c2ccccc12)NC(=O)[C@@H](N)CCCNC(=N)N)C(=O)N[C@@H](Cc1c[nH]c2c(-c3cccc(C(F)(F)F)c3)cccc12)C(N)=O [CF3(−RW)3] (H-RWRWR[X1]-NH2; N-terminus assumed) |  | 4 fold |  |  |  |  |  |
| galanin |  |  | 21.379% | 0% | 21.5543% and 21.2037% | 21.2037% and 21.5543% | 16.8 ± 0.2% |
